Laboratory results as given in PubChem BioAssay AID1963844 (Molecular Pharmacology Branch, DTP, NCI, 2024).

Tested on: 422866-222-R5-J1-PDC complex spheroid viability
Assay: Anticancer human tumor 422866-222-R5-J1-PDC patient-derived pancreatic adenocarcinoma cell line growth inhibition [POLQ]
Settings: for IC50: curve of first compound; for viability, T/C: stronger effect = lower value
In short: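 Three-cell-type spheroids modelling solid tumor plus stroma served as the readout system; POL inhibitors were tested individually and in combination, concentration ranges set by clinical Cmax where known.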

[1] = second compound 0.0316 µM, first compound 0.0316 µM
[2] = second compound 0.0316 µM, first compound 0.1 µM
[3] = second compound 0.0316 µM, first compound 0.316 µM
[4] = second compound 0.0316 µM, first compound 1 µM
[5] = second compound 0.0316 µM, first compound 3.16 µM
[6] = second compound 0.0316 µM, first compound 10 µM
[7] = second compound 0.1 µM, first compound 0.0316 µM
[8] = second compound 0.1 µM, first compound 0.1 µM
[9] = second compound 0.1 µM, first compound 0.316 µM
[10] = second compound 0.1 µM, first compound 1 µM
[11] = second compound 0.1 µM, first compound 3.16 µM
[12] = second compound 0.1 µM, first compound 10 µM
[13] = second compound 0.316 µM, first compound 0.0316 µM
[14] = second compound 0.316 µM, first compound 0.1 µM
[15] = second compound 0.316 µM, first compound 0.316 µM
[16] = second compound 0.316 µM, first compound 1 µM
[17] = second compound 0.316 µM, first compound 3.16 µM
[18] = second compound 0.316 µM, first compound 10 µM
[19] = second compound 1 µM, first compound 0.0316 µM
[20] = second compound 1 µM, first compound 0.1 µM
[21] = second compound 1 µM, first compound 0.316 µM
[22] = second compound 1 µM, first compound 1 µM
[23] = second compound 1 µM, first compound 3.16 µM
[24] = second compound 1 µM, first compound 10 µM
[25] = second compound 3.16 µM, first compound 0.0316 µM
[26] = second compound 3.16 µM, first compound 0.1 µM
[27] = second compound 3.16 µM, first compound 0.316 µM
[28] = second compound 3.16 µM, first compound 1 µM
[29] = second compound 3.16 µM, first compound 3.16 µM
[30] = second compound 3.16 µM, first compound 10 µM
[31] = second compound 10 µM, first compound 0.0316 µM
[32] = second compound 10 µM, first compound 0.1 µM
[33] = second compound 10 µM, first compound 0.316 µM
[34] = second compound 10 µM, first compound 1 µM
[35] = second compound 10 µM, first compound 3.16 µM
[36] = second compound 10 µM, first compound 10 µM
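Further: spheroids exposed to compounds for one week before readout.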
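Wherever viability, T/C is given: percent of DMSO vehicle wells luminescence so 100% = untreated viability.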

SMILES: CNCc1ccc(-c2[nH]c3cc(F)cc4c3c2CCNC4=O)cc1 + Nc1ccc(C#CCN(C(=O)Cc2ncc(C(F)(F)F)cc2C(F)(F)F)c2ccc(F)cc2)nn1
- IC50 (second compound 0.0316 µM): > 10000 nM
- IC50 (second compound 0.1 µM): > 10000 nM
- IC50 (second compound 0.316 µM): > 10000 nM
- IC50 (second compound 1 µM): > 10000 nM
- IC50 (second compound 3.16 µM): > 10000 nM
- IC50 (second compound 10 µM): > 10000 nM
- viability, T/C [1]: 78.7%
- viability, T/C [2]: 93.6%
- viability, T/C [3]: 77.7%
- viability, T/C [4]: 104%
- viability, T/C [5]: 78.8%
- viability, T/C [6]: 76.6%
- viability, T/C [7]: 106%
- viability, T/C [8]: 87.5%
- viability, T/C [9]: 92.4%
- viability, T/C [10]: 107%
- viability, T/C [11]: 80.6%
- viability, T/C [12]: 82.8%
- viability, T/C [13]: 87.4%
- viability, T/C [14]: 109%
- viability, T/C [15]: 97.1%
- viability, T/C [16]: 101%
- viability, T/C [17]: 72.1%
- viability, T/C [18]: 79.5%
- viability, T/C [19]: 89.4%
- viability, T/C [20]: 89.9%
- viability, T/C [21]: 93%
- viability, T/C [22]: 91.9%
- viability, T/C [23]: 73.5%
- viability, T/C [24]: 63%
- viability, T/C [25]: 100%
- viability, T/C [26]: 96.4%
- viability, T/C [27]: 105%
- viability, T/C [28]: 89.7%
- viability, T/C [29]: 87.4%
- viability, T/C [30]: 81.9%
- viability, T/C [31]: 96.1%
- viability, T/C [32]: 109%
- viability, T/C [33]: 89.8%
- viability, T/C [34]: 64.7%
- viability, T/C [35]: 79%
- viability, T/C [36]: 69%

SMILES: COc1cc(C2c3cc4c(cc3C(OC3OC5COC(C)OC5C(O)C3O)C3COC(=O)C23)OCO4)cc(OC)c1O (stereo unspecified) + Nc1ccc(C#CCN(C(=O)Cc2ncc(C(F)(F)F)cc2C(F)(F)F)c2ccc(F)cc2)nn1
- IC50 (second compound 0.0316 µM): 779 nM
- IC50 (second compound 0.1 µM): 906 nM
- IC50 (second compound 0.316 µM): 555 nM
- IC50 (second compound 1 µM): 640 nM
- IC50 (second compound 3.16 µM): 367 nM
- IC50 (second compound 10 µM): 534 nM
- viability, T/C [1]: 90.9%
- viability, T/C [2]: 97.1%
- viability, T/C [3]: 62.7%
- viability, T/C [4]: 49.6%
- viability, T/C [5]: 33.5%
- viability, T/C [6]: 30.6%
- viability, T/C [7]: 110%
- viability, T/C [8]: 90.1%
- viability, T/C [9]: 76.2%
- viability, T/C [10]: 46.4%
- viability, T/C [11]: 31.2%
- viability, T/C [12]: 28.8%
- viability, T/C [13]: 123%
- viability, T/C [14]: 92.1%
- viability, T/C [15]: 55.5%
- viability, T/C [16]: 47.1%
- viability, T/C [17]: 29.2%
- viability, T/C [18]: 36.9%
- viability, T/C [19]: 94.3%
- viability, T/C [20]: 100%
- viability, T/C [21]: 68.5%
- viability, T/C [22]: 40.6%
- viability, T/C [23]: 32.1%
- viability, T/C [24]: 35.5%
- viability, T/C [25]: 93.3%
- viability, T/C [26]: 81.4%
- viability, T/C [27]: 48.2%
- viability, T/C [28]: 47.1%
- viability, T/C [29]: 37.6%
- viability, T/C [30]: 31.6%
- viability, T/C [31]: 103%
- viability, T/C [32]: 88.9%
- viability, T/C [33]: 55.4%
- viability, T/C [34]: 43.6%
- viability, T/C [35]: 38.4%
- viability, T/C [36]: 31.6%

SMILES: Nc1ccn(C2OC(CO)C(O)C2(F)F)c(=O)n1 (stereo unspecified) + Nc1ccc(C#CCN(C(=O)Cc2ncc(C(F)(F)F)cc2C(F)(F)F)c2ccc(F)cc2)nn1
- IC50 (second compound 0.0316 µM): < 31.6 nM
- IC50 (second compound 0.1 µM): 55.2 nM
- IC50 (second compound 0.316 µM): 72.6 nM
- IC50 (second compound 1 µM): 71.5 nM
- IC50 (second compound 3.16 µM): 118 nM
- IC50 (second compound 10 µM): 539 nM
- viability, T/C [1]: 57.9%
- viability, T/C [2]: 42.5%
- viability, T/C [3]: 28.7%
- viability, T/C [4]: 38.4%
- viability, T/C [5]: 36.9%
- viability, T/C [6]: 39.2%
- viability, T/C [7]: 62.2%
- viability, T/C [8]: 37.7%
- viability, T/C [9]: 30.6%
- viability, T/C [10]: 32.4%
- viability, T/C [11]: 38.1%
- viability, T/C [12]: 36.4%
- viability, T/C [13]: 66.8%
- viability, T/C [14]: 43.5%
- viability, T/C [15]: 30.4%
- viability, T/C [16]: 40.1%
- viability, T/C [17]: 33.2%
- viability, T/C [18]: 34.4%
- viability, T/C [19]: 75%
- viability, T/C [20]: 39.8%
- viability, T/C [21]: 36.8%
- viability, T/C [22]: 34.3%
- viability, T/C [23]: 36.1%
- viability, T/C [24]: 49%
- viability, T/C [25]: 72.8%
- viability, T/C [26]: 52.5%
- viability, T/C [27]: 35.3%
- viability, T/C [28]: 31.8%
- viability, T/C [29]: 34.1%
- viability, T/C [30]: 41%
- viability, T/C [31]: 98.8%
- viability, T/C [32]: 67.9%
- viability, T/C [33]: 68.8%
- viability, T/C [34]: 34.8%
- viability, T/C [35]: 31.7%
- viability, T/C [36]: 30.6%
